This note sets out measurements from PMC11053168, “Agonist-selective activation of individual G-proteins by muscarinic receptors” (Scientific Reports, 2024).

In this test the target is T1, M2 receptor (Homo sapiens, UniProt P08172).
T1 sequence (P08172 1-466): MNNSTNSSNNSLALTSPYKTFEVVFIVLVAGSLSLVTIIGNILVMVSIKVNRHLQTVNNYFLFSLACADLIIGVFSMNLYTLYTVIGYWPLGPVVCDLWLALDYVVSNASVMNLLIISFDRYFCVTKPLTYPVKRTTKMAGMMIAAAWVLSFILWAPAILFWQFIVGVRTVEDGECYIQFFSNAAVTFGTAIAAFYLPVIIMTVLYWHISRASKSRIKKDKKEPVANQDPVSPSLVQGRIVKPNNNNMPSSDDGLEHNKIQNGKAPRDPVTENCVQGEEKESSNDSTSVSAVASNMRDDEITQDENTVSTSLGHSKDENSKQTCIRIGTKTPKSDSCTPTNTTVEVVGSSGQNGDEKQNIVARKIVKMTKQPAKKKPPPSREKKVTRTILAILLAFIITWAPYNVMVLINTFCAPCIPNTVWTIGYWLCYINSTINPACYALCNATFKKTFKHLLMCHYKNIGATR
In words: Agonist-stimulated GTPγ[35S] binding to Sf9 membranes expressing M2 receptor and individual Gαi/o. Also noted: host or cells: Sf9 insect cells, baculovirus (pFastBac1 / Bac-to-Bac); membranes. The conditions noted are these: for Activation of individual Gi/o Gα types: M2 with GαoA, GαoB, Gαi1, Gαi2, Gαi3; for Operational efficacy lower than the efficacy of CBC: at GαoA and GαoB; for Signalling bias among Gαi/o relative to CBC: RAi / bias factor, CBC reference. It counts as biochemical. On the procedure: Baculoviral stocks for expression of M2 receptor and individual Gα-subunits of Gi/o G-proteins (GαoA, GαoB, Gαi1, Gαi2, Gαi3) in SF9 cells were generated according to Bac-to-Bac® baculovirus expression system—user guide (https://assets.thermofisher.com/TFS-Assets/LSG/manuals/MAN0000414_BactoBacExpressionSystem_UG.pdf). […] After 96 h at 27 °C, baculoviral viral particles released into the medium were harvested. After centrifugation at 500×g for 10 min to remove detached cells and cell debris, baculoviral stock P0 was ready for amplification. Suspension of Sf9 cells at density 2 × 10^6 cells per ml was infected by baculoviral stock P0 in ratio 1:1000 and after 72 h of growth (in a shaking incubator at 135 rpm and 27 °C) the amplified baculoviral stock P1 was harvested. The cell suspension was centrifugated at 500×g for 10 min to remove cells and cell debris and the supernatant containing a high level of baculoviral particles P1 was collected. FBS to the concentration of 0.5% was added and the stock was stored at 4 °C, protected from light for up to 6 months. For the quantification of baculoviral particles, a plaque assay was used.
Cells were grown in suspension culture in 250 ml Erlenmeyer flasks in Sf-900™ III serum-free medium in an aerated shaking incubator at 27 °C and 135 rpm. Cells were maintained at the density of 1–4 × 10^6 cells per ml. Sf9 cells at the density 2 × 10^6 were co-infected with baculoviral stock for the M2 receptor and a particular Gi/o Gα in the ratio (1:10). […] Infected cells were harvested by centrifugation 1000×g for 10 min. Cell pellets were kept at − 80 °C.
Membranes were prepared as described previously by Randakova et al.[33]. Cells harvested from twenty 100 mm petri dishes (CHO) or 30 ml of cell suspension (Sf9) were suspended in 20 ml of ice-cold incubation medium (100 mM NaCl, 20 mM Na-HEPES, 10 mM MgCl2, pH 7.4) supplemented with 10 mM EDTA and homogenized on ice by two 30‐s strokes using a Polytron homogenizer (Ultra-Turrax; Janke & Kunkel GmbH & Co. KG, IKA-Labortechnik, Staufen, Germany) with a 30 s pause between strokes. Cell homogenates were centrifuged for 5 min at 1000×g to remove whole cells and cell nuclei. The resulting supernatants were centrifuged for 30 min at 30,000×g. Pellets were suspended in a fresh incubation medium, incubated on ice for 30 min, and centrifuged again. The resulting membrane pellets were kept at − 80 °C until assayed within 10 weeks.
Agonist stimulated GTPγ[^35S]binding to membranes from Sf9 cells expressing the M2 receptors in a combination with α-subunit of given Gi/o type (GαoA, GαoB, Gαi1, Gαi2, Gαi3) was measured in 96-well plates in a final volume of 200 µl of incubation medium described above containing 500 pM of GTPγ[^35S] […] Nonspecific binding was determined in the presence of 1 µM nonlabelled GTPγS. Incubations were terminated and processed as described above. Parameters of functional response were calculated according to Eq. (3) after subtraction of non-specific binding.
The basal value of GTPγ[^35S] binding was determined in the absence of the agonist. After subtraction of non-specific binding determined in the presence of 10 μM nonlabelled GTPγS, GTPγ[^35S]binding was divided by the basal value and expressed as folds over basal. […] Then Eq. (3) was fitted to the data using GraphPad. Obtained EMAX and EC50 values were used to calculate RAi values using Eq. (7). To determine τ and KA of the functional responses system EMAX was determined as described earlier. Basal values were subtracted and functional responses were expressed as fractions of system EMAX. […] Obtained τ and KA values were used to calculate the bias factor according to Eq. (8), see below, for each experiment.
Equation (4) was fitted to data by the two-step procedure described earlier[61]
(In general: Binding of GTPγS marks nucleotide exchange on a G protein.)

Turning to `C[N+](C)(C)CCOC(N)=O` [CBC, carbachol, reference compound], the “Activation of individual Gi/o Gα types” value is recorded as “activated all Gi/o types”. In addition, the “GTPγ[35S] binding signal at Gi1 as % of GoA” value (M2 + Gi1 vs M2 + GoA) stood at 62%.

As for `c1csc(C[N+]23CCC(CC2)CC3)c1` [JB-8A], the “Activation of individual Gi/o Gα types” value was “activated GαoA and GαoB only”; the “Operational efficacy lower than the efficacy of CBC” value is 20–30 ×.

On to `C[N+]1(Cc2cccs2)CCOCC1` [JB-12-2], for which the “Activation of individual Gi/o Gα types” value is “activated all Gi/o Gα”. The “Signalling bias among Gαi/o relative to CBC” value (M2) was “biased to GαoA”. In addition, the “Bias GoA vs GoB” value (M2, relative to carbachol) is given as “more than 5 fold”.

Take `COC(=O)C1=CCCN(Cc2cccs2)C1` [JB-13-1]: the “Activation of individual Gi/o Gα types” value is given as “activated all Gi/o Gα”. The “Signalling bias among Gαi/o relative to CBC” value (M2) is on record as “biased to Gαi3”.

As to `C[N+]1(Cc2cccs2)CC=CCC1` (centres unmarked) [JR-6, 1-methyl-1-[(thiophen-2-yl)methyl]-1,2,3,6-tetra hydropyridin-1-ium], the “Activation of individual Gi/o Gα types” value was “activated GαoA and GαoB only”; the “Operational efficacy lower than the efficacy of CBC” value is “approx 10 ×”. In addition, for the setting “M2 + Gi1”, the “GTPγ[35S] binding signal” value is recorded as “no signal”. In addition, the “GTPγ[35S] binding signal relative to the detection limit” value (M2 + GoA) is recorded as “more than 20 fold”. For the same molecule, the “Signalling bias among Gαi/o relative to CBC” value (M2) is “absolute selectivity to Gαo with a preference for GαoB”.

Regarding `C[N+]1(Cc2ccc(Cl)s2)CC=CCC1` (centres unmarked) [PN-152, 1-[(5-chlorothiophen-2-yl)methyl]-1-methyl-1,2,3,6-tetrahydropyridin-1-ium], the “Activation of individual Gi/o Gα types” value is “activated GαoA and GαoB only”; the “Operational efficacy lower than the efficacy of CBC” value is around 15 ×. The “Signalling bias among Gαi/o relative to CBC” value (M2) is given as “absolute selectivity to Gαo with a preference for GαoB”.
